From patent publication US20240190893A1, “MACROCYCLIC 1,3-BRIDGED 6-CHLORO-7-PYRAZOL-4-YL-1 H-INDOLE-2-CARBOXYLATE AND 6-CHLORO-7-PYRIMIDIN-5-YL-1H-INDOLE-2-CARBOXYLATE DERIVATIVES AS MCL-1 INHIBITORS FOR THE TREATMENT OF CANCER” (JANSSEN PHARMACEUTICA NV, priority 2021, published 2024)

Legend:
[1] = target: Myeloid Cell Leukemia 1 (Mcl-1) (Homo sapiens (Human), UniProt Q07820); experiment: Terbium labeled Mcl-1 HTRF binding assay with Cy5-labeled BIM BH3 peptide; details: Tb-Mcl-1 25 pM, Cy5 Bim peptide 8 nM; Ki=IC50/(1+[L]/Kd), [L]=8 nM, Kd=10 nM
Sequence of Myeloid Cell Leukemia 1 (Mcl-1) (Q07820 whole entry): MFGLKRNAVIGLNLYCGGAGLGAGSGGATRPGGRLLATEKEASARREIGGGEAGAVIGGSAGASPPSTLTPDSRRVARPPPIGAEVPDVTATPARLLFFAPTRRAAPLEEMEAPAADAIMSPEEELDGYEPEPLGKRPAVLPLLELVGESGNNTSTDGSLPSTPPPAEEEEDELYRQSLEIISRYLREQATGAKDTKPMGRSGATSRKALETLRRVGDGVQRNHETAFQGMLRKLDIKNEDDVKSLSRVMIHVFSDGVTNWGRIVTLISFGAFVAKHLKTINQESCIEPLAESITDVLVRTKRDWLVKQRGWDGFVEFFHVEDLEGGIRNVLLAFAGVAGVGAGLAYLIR
Description: Terbium labeled Myeloid Cell Leukemia 1 (Mcl-1) homogeneous time-resolved fluorescence (HTRF) binding assay utilizing the BIM BH3 peptide (H2N—(C/Cy5Mal) WIAQELRRIGDEFN-OH) as the binding partner for Mcl-1.
This assay evaluated inhibition of the BH3 domain: Mcl-1 interaction by measuring the displacement of Cy5-labeled BIM BH3 peptide (H2N—(C/Cy5Mal) WIAQELRRIGDEFN-OH) in the HTRF assay format.
The following assay and stock buffers were prepared for use in the assay: (a) Stock buffer: 10 mM Tris-HCl, pH=7.5+150 mM NaCl, filtered, sterilized, and stored at 4° C.; and (b) 1× assay buffer, where the following ingredients were added fresh to stock buffer: 2 mM dithiothreitol (DTT), 0.0025% Tween-20, 0.1 mg/mL bovine serum albumin (BSA). The 1×Tb-Mcl-1+Cy5 Bim peptide solution was prepared by diluting the protein stock solution using the 1× assay buffer (b) to 25 pM Tb-Mcl-1 and 8 nM Cy5 Bim peptide.
Using the Acoustic ECHO, 100 nL of 100× test compound(s) were dispensed into individual wells of a white 384-well Perkin Elmer Proxiplate, for a final compound concentration of 1× and final DMSO concentration of 1%. Inhibitor control and neutral control (NC, 100 nL of 100% DMSO) were stamped into columns 23 and 24 of assay plate, respectively. Into each well of the plate was then dispensed 10 μL of the 1×Tb-Mcl-1+Cy5 Bim peptide solution. The plate was centrifuged with a cover plate at 1000 rpm for 1 minute, then incubated for 60 minutes at room temperature with plates covered.
The TR-FRET signal was read on an BMG PHERAStar FSX MicroPlate Reader at room temperature using the HTRF optic module (HTRF: excitation: 337 nm, light source: laser, emission A: 665 nm, emission B: 620 nm, integration start: 60 μs, integration time: 400 μs).
The BMG PHERAStar FSX MicroPlate Reader was used to measure fluorescence intensity at two emission wavelengths—665 nm and 620 nm—and report relative fluorescence units (RFU) for both emissions, as well as a ratio of the emissions (665 nm/620 nm)*10,000. The RFU values were normalized to percent inhibition as follows:
% inhibition=(((NC−IC)−(compound−IC))/(NC−IC))*100
where IC (inhibitor control, low signal)=mean signal of 1×Tb-MCl-1+Cy5 Bim peptide+ inhibitor control or 100% inhibition of Mcl-1; NC (neutral control, high signal)=mean signal 1×Tb-MCl-1+Cy5 Bim peptide with DMSO only or 0% inhibition
An 11-point dose response curve was generated to determine IC50 values (using GenData) based on the following equation:
Y=Bottom+(Top−Bottom)/(1+10^((log IC50−X)*HillSlope))
where Y=% inhibition in the presence of X inhibitor concentration; Top=100% inhibition derived from the IC (mean signal of Mcl-1+inhibitor control); Bottom=0% inhibition derived from the NC (mean signal of Mcl-1+DMSO); Hillslope=Hill coefficient; and IC50=concentration of compound with 50% inhibition in relation to top/neutral control (NC).
In this assay [L]=8 nM and Kd=10 nM
Representative compounds of the present invention were tested according to the procedure as described above, with results as listed in the Table below (n.d. means not determined).

[2] = system: MOLP-8 human multiple myeloma cell line; experiment: Caspase-Glo 3/7 apoptosis induction assay in MOLP-8 cells; type: cell-based; details: MOLP8 cells, 2 hours at 37° C., averaged over all runs on all batches
Excerpt: MCL-1 is a regulator of apoptosis and is highly over-expressed in tumor cells that escape cell death. The assay evaluates the cellular potency of small-molecule compounds targeting regulators of the apoptosis pathway, primarily MCL-1, Bfl-1, Bcl-2, and other proteins of the Bcl-2 family. Protein-protein inhibitors disrupting the interaction of anti-apoptotic regulators with BH3-domain proteins initiate apoptosis.
The Caspase-Glo® 3/7 Assay is a luminescent assay that measures caspase-3 and -7 activities in purified enzyme preparations or cultures of adherent or suspension cells. The assay provides a proluminescent caspase-3/7 substrate, which contains the tetrapeptide sequence DEVD. This substrate is cleaved to release aminoluciferin, a substrate of luciferase used in the production of light. Addition of the single Caspase-Glo® 3/7 Reagent in an “add-mix-measure” format results in cell lysis, followed by caspase cleavage of the substrate and generation of a “glow-type” luminescent signal.
This assay uses the MOLP-8 human multiple myeloma cell line, which is sensitive to MCL-1 inhibition.
Cell cultures were maintained between 0.2 and 2.0×10^6 cells/mL. The cells were harvested by collection in 50 mL conical tubes. The cells were then pelleted at 500 g for 5 mins before removing supernatant and resuspension in fresh pre-warmed culture medium. The cells were counted and diluted as needed.
The assay reagent was prepared by transferring the buffer solution to the substrate vial and mixing. The solution may be stored for up to 1 week at 4° C. with negligible loss of signal.
Compounds were delivered in assay-ready plates (Proxiplate) and stored at −20° C.
Assays always include 1 reference compound plate containing reference compounds. The plates were spotted with 40 nL of compounds (0.5% DMSO final in cells; serial dilution; 30 μM highest conc. 1/3 dilution, 10 doses, duplicates). The compounds were used at room temperature and 4 μL of pre-warmed media was added to all wells except column 2 and 23. The negative control was prepared by adding 1% DMSO in media. The positive control was prepared by adding the appropriate positive control compound in final concentration of 60 μM in media. The plate was prepared by adding 4 μL negative control to column 23, 4 μL positive control to column 2 and 4 μL cell suspension to all wells in the plate. The plate with cells was then incubated at 37° C. for 2 hours. The assay signal reagent is the Caspase-Glo solution described above, and 8 μL was added to all wells. The plates were then sealed and measured after 30 minutes.
The activity of a test compound was calculated as percent change in apoptosis induction as follows:
LC=median of the Low Control values
HC=Median of the High Control values
=30 μM of positive control
=100% apoptosis induction
% Effect (AC50)=100−((sample−LC)/(HC−LC))*100
% Control=(sample/HC)*100
% Control min=((sample−LC)/(HC−LC))*100

SMILES	Ki [1] [nM]	AC50 [2] [nM]	AC50 ([2]; Homo sapiens, MOLP-8, 2 h) [nM]
COCCn1nc(C)c(-c2c(Cl)ccc3c4c(C(=O)O)n(c23)CCCSCc2cc(n(C)n2)CCc2cc(c3ccc(F)cc3c2)OCCC4)c1C (single isomer, unassigned) [Compound 10]	0.093	160	–
Cc1c(-c2c(Cl)ccc3c4c(C(=O)O)n(c23)CCCSCc2cc(n(C)n2)CCc2cc(c3ccc(F)cc3c2)OCCC4)c(CO)nn1C (single isomer, unassigned) [Compound 17]	0.08	1830	–
Cc1nn(C)c(C)c1-c1c(Cl)ccc2c3c(C(=O)O)n(c12)CCSCc1cc(n(C)n1)CSc1cc(c2ccccc2c1)OCCC3 (single isomer, unassigned) [Compound 13]	0.392	–	1340
Cc1nn(C)c(C)c1-c1c(Cl)ccc2c3c(C(=O)O)n(c12)CCSCc1cc(n(C)n1)CSc1cc(c2ccccc2c1)OCCC3 (single isomer, unassigned) [Compound 14]	0.423	1540	–
Cc1nn(C)c(C)c1-c1c(Cl)ccc2c3c(C(=O)O)n(c12)CCCSCc1cc(n(C)n1)CSc1cc(c2ccccc2c1)OCCC3 [Compound 19]	–	740	–
Cc1nn(C)c(C)c1-c1c(Cl)ccc2c3c(C(=O)O)n(c12)CCCSCc1cc(n(C)n1)CCc1cc(c2ccc(F)cc2c1)OCCC3 (single isomer, unassigned) [Compound 2]	0.084	–	130
COCCn1nc(C)c(-c2c(Cl)ccc3c4c(C(=O)O)n(c23)CCCSCc2cc(n(C)n2)CCc2cc(c3ccc(F)cc3c2)OCCC4)c1C (single isomer, unassigned) [Compound 9]	0.139	–	232
Cc1c(-c2c(Cl)ccc3c4c(C(=O)O)n(c23)CCCSCc2cc(n(C)n2)CCc2cc(c3ccc(F)cc3c2)OCCC4)c(CO)nn1C (single isomer, unassigned) [Compound 16]	0.056	414	–
Cn1cc(-c2c(Cl)ccc3c4c(C(=O)O)n(c23)CCCSCc2cc(n(C)n2)CCc2cc(c3ccc(F)cc3c2)OCCC4)cn1 [Compound 8]	0.977	–	1340
Cc1nn(C)c(C)c1-c1c(Cl)ccc2c3c(C(=O)O)n(c12)CCSCc1cc(n(C)n1)CCc1cc(c2ccc(F)cc2c1)OCCC3 (single isomer, unassigned) [Compound 6]	0.056	–	237
COCCOCc1nn(C)c(C)c1-c1c(Cl)ccc2c3c(C(=O)O)n(c12)CCCSCc1cc(n(C)n1)CCc1cc(c2ccc(F)cc2c1)OCCC3 (single isomer, unassigned) [Compound 20]	0.073	173	–
Cc1nn(C)c(C)c1-c1c(Cl)ccc2c3c(C(=O)O)n(c12)CCSCc1cc(n(C)n1)CCc1cc(c2ccc(F)cc2c1)OCCC3 (single isomer, unassigned) [Compound 7]	0.086	231	–
COCCOCc1nn(C)c(C)c1-c1c(Cl)ccc2c3c(C(=O)O)n(c12)CCCSCc1cc(n(C)n1)CCc1cc(c2ccc(F)cc2c1)OCCC3 (single isomer, unassigned) [Compound 21]	0.155	1010	–
Cc1nn(C)c(C)c1-c1c(Cl)ccc2c3c(C(=O)O)n(c12)CCSCc1cc(n(C)n1)CCc1cc(c2ccccc2c1)OCCC3 (single isomer, unassigned) [Compound 11]	0.307	–	1460
Cc1nn(C)c(C)c1-c1c(Cl)ccc2c3c(C(=O)O)n(c12)CCCSCc1cc(n(C)n1)CCc1cc(c2ccc(F)cc2c1)OCCC3 [Compound 1]	0.126	–	90.5
Cc1nn(C)c(C)c1-c1c(Cl)ccc2c3c(C(=O)O)n(c12)CCCSCc1cc(n(C)n1)CCc1cc(c2ccc(F)cc2c1)OCCC3 (single isomer, unassigned) [Compound 3]	0.133	207	–
Cc1nn(C)c(C)c1-c1c(Cl)ccc2c3c(C(=O)O)n(c12)CCCSCc1cc(n(C)n1)CSc1cc(c2ccccc2c1)OCCC3 [Compound 18]	–	3640	–
Cc1nn(C)c(C)c1-c1c(Cl)ccc2c3c(C(=O)O)n(c12)CCSCc1cc(n(C)n1)CCc1cc(c2ccccc2c1)OCCC3 (single isomer, unassigned) [Compound 12]	0.396	1350	–
Cc1nn(C)c(C)c1-c1c(Cl)ccc2c3c(C(=O)O)n(c12)CCCS(=O)(=O)Cc1cc(n(C)n1)CCc1cc(c2ccc(F)cc2c1)OCCC3 (single isomer, unassigned) [Compound 4]	0.251	–	7030
Cn1nc2cc1CCc1cc(c3ccc(F)cc3c1)OCCCc1c(C(=O)O)n(c3c(-c4cncnc4)c(Cl)ccc13)CCC[S+]([O-])C2 (stereo not drawn) [Compound 15]	0.426	–	–
Cc1nn(C)c(C)c1-c1c(Cl)ccc2c3c(C(=O)O)n(c12)CCCS(=O)(=O)Cc1cc(n(C)n1)CCc1cc(c2ccc(F)cc2c1)OCCC3 (single isomer, unassigned) [Compound 5]	0.276	7270	–
